Assay [1] concerns E. coli h38 humanized mutant ribosome RFP fluorescence, mixed culture, 24 h. Briefly: growth inhibition of wild-type GFP E. coli, dose response, h38 mutant RFP, cherry-pick (AID 977622). The note with it: measured here: h38 humanized mutant RFP strain.
The test system of assay [2] is E. coli WT ribosome GFP fluorescence, mixed culture, 24 h. The assay is described as above.
Setting [3] is: E. coli mixed culture, 24 h, measured here: total growth OD600.

Each structure is given as a SMILES string. Inconclusive results are not listed. Activity calls are given as the source filed them.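 Rule for the calls: active = Green signal of the normal strain falls at least twice as much as red signal of the resistant mutant, with overall culture growth loss under a set limit; inconclusive = no clear call, values can overlap the other calls; inactive = the rest.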

`CC(C)=C(c1ccc(Cl)cc1)c1c(N)ncnc1N`: the AC50 (as a rule, the midpoint of the concentration-response curve, whichever way the signal moves) in assay [1] is > 100 µM.

Regarding `O=C(c1cccs1)c1c[nH]cc1-c1ccccc1`, the half-maximal activity concentration (AC50) in assay [2] (setting [3]) and in assay [1] was > 100 µM each time.

As to `CN1C(=O)c2cc(NC(=O)c3cccc(F)c3)ccc2OC[C@H]2O[C@@H](CC(=O)NCC3CCCCC3)CC[C@@H]21`, the AC50 in assay [1] was > 100 µM.

As to `C[C@H]1CN([C@@H](C)CO)C(=O)c2c(c3ccccc3n2C)-c2ccccc2CO[C@@H]1CN(C)Cc1ccncc1`, in assay [1], the concentration at half-maximal activity (AC50) is > 100 µM.

For the molecule `Cc1ccccc1-c1cc(C(=O)NCc2cccs2)n(CC2CC(c3cccnc3)=NO2)n1` (configuration not stated), the values for the AC50 in assay [2] and in assay [1] were > 100 µM (inactive) and > 100 µM, respectively.

`COc1ccc(OC)c(S(=O)(=O)Nc2cccc3ccc(O)cc23)c1`: the AC50 in assay [2] is > 100 µM (inactive); in assay [2] (setting [3]), > 100 µM; in assay [1], > 100 µM.

Regarding `CN(C)c1ccc(-c2nnn(Cc3ccccc3Br)n2)cc1`, the AC50 in assay [2] was > 100 µM (inactive); in assay [1] it was > 100 µM.

With `O=C1OC[C@@H]2CCCN2C(=O)[C@@H](CC(=O)N(CCO)Cc2ccccc2)C/C=C\C[C@H]1Cc1ccc(F)cc1`, the AC50 in assay [2] (setting [3]) and in assay [1] was > 100 µM throughout.

Consider `COc1ccc(CN2C(=O)NC(C)(c3ccc(C)cc3)C2=O)cc1F` (configuration not stated), for which the AC50 was > 100 µM (inactive) in assay [2] and > 100 µM in assay [1].

For the molecule `CC(C)n1nnnc1C1c2ccccc2C(=O)N1CCOc1ccccc1` (configuration not stated), the AC50 in assay [2] (setting [3]) was > 100 µM; in assay [1] it was 3.86 µM.

`O=S(=O)(NOCc1ccc(Cl)cc1)c1ccc(Cl)cc1` returned an AC50 in assay [1] of 52 µM.

On to `COc1cccc(NC(=O)C2CCC(CNS(=O)(=O)c3cccs3)CC2)c1` (configuration not stated), for which the AC50 in assay [2] was > 100 µM (inactive); in assay [1], > 100 µM.

`NC(=O)c1cccnc1Oc1ccc(Cl)cc1Cl`: the figures for the AC50 in assay [2] and in assay [1] were > 100 µM (inactive) and > 100 µM, respectively.

For the molecule `O=S1(=O)N[C@H](Cc2ccccc2)COc2cccc(N3CCC[C@H]3CO)c21`, the AC50 in assay [2] is > 100 µM (inactive); in assay [1], > 100 µM.

Regarding `CC(=O)Nc1cccc(OCc2ccc([N+](=O)[O-])cc2)c1`, the AC50 in assay [1] was > 100 µM.

Take `COc1ccc(NC(=O)CCS(=O)(=O)c2ccccc2Cl)cc1S(=O)(=O)Nc1ccc(Cl)cc1`: the AC50 in assay [2] is > 100 µM (inactive); in assay [2] (setting [3]) it was > 100 µM; in assay [1], > 100 µM.

Turning to `O=C(Nc1ccc(C(=O)c2ccccc2)cc1)c1ccccc1`, the AC50 in assay [1] is > 100 µM.

In the case of `Cc1ccccc1CSCC(=O)Nc1ccccc1F`, the AC50 in assay [1] is > 100 µM.

As to `O=C(Nc1cccc(Cl)c1)c1ccc(S(=O)(=O)NCC2CCCO2)cc1` (configuration not stated), the AC50 in assay [2] was > 100 µM (inactive); in assay [2] (setting [3]), 52.5 µM; in assay [1], 43.4 µM.

Turning to `COc1ccc(OC)c(C(=O)COC(=O)c2ccc([N+](=O)[O-])o2)c1`, the results for the AC50 in assay [2], in assay [2] (setting [3]) and in assay [1] were > 100 µM (inactive), > 100 µM and > 100 µM, respectively.

`O=S(=O)(Nc1ccc(-c2cnco2)cc1)c1ccccc1`: the AC50 in assay [2] was > 100 µM (inactive); in assay [1], > 100 µM.

Regarding `O=C(NCc1ccccc1)C1C(=O)Nc2ccccc2C(=O)N1c1ccc2c(c1)OCCO2` (configuration not stated), the results for the AC50 in assay [2] and in assay [1] were > 100 µM (inactive) and > 100 µM, respectively.

As for `Cc1ccccc1S(=O)(=O)N1C[C@H]2CON(C)[C@H]2C[C@H]1c1cccc(-c2ccc(C#N)cc2)c1`, the AC50 in assay [1] is > 100 µM.

For `O=C(c1cccc2ccccc12)C1CCCN(C(=O)CCc2cnccn2)C1` (configuration not stated), the AC50 in assay [2] (setting [3]) and in assay [1] was > 100 µM each time.

As to `COc1cccc(-c2ccc(NC(=O)C3CCCN(Cc4cnn(C(C)C)c4)C3)cc2)c1` (configuration not stated), the AC50 in assay [1] was > 100 µM.

For the molecule `CC(C)(C)S(=O)(=O)Cc1nc(-c2ccc(Cl)c(Cl)c2)cs1`, the AC50 in assay [2] is > 100 µM (inactive); in assay [2] (setting [3]), > 100 µM; in assay [1], > 100 µM.

Regarding `Cc1nc([N+](=O)[O-])c(Br)n1CC(=O)c1ccc(F)cc1`, the AC50 in assay [2] is > 100 µM (inactive); in assay [1], 4.58 µM.

On to `C[C@@H]1CCCCO[C@H](CN(C)CC2CC2)[C@H](C)CN([C@@H](C)CO)C(=O)c2cc(NC(=O)Nc3cccc4ccccc34)ccc2O1`, for which the AC50 in assay [2] is > 52 µM (inactive); in assay [2] (setting [3]), 32.4 µM; in assay [1], 43.2 µM.

As for `Cc1ccc(C(=O)Nc2cccc3[nH]c(C(F)(F)F)nc23)cc1`, the AC50 in assay [2] (setting [3]) and in assay [1] was > 100 µM throughout.

Turning to `O=C(O)CSc1nnc(-c2ccc(Cl)cc2Cl)n1-c1ccc(Br)cc1`, the AC50 in assay [2] is > 100 µM (inactive); in assay [2] (setting [3]), > 100 µM; in assay [1] it was > 100 µM.

In the case of `COC(=O)c1c(-c2ccc(OC)cc2)sc2cc(OC)c(OC)cc12`, the AC50 in assay [2] is > 100 µM (inactive); in assay [2] (setting [3]), 45.8 µM; in assay [1], > 100 µM.

Turning to `CCc1cccc(NC(=O)CN(C)S(=O)(=O)c2cccc3cccnc23)c1`, the AC50 in assay [2] was > 100 µM (inactive); in assay [1], > 100 µM.

Turning to `C=CCn1c(C)cc(C(=O)CSc2nnc(C3CC3)n2C2CC2)c1C`, the AC50 in assay [2] (setting [3]) and in assay [1] was > 100 µM throughout.

`Cc1cccc(Nc2nc(-c3ccc(F)cc3)cs2)n1`: the AC50 in assay [2] was > 100 µM (inactive); in assay [2] (setting [3]) it was > 100 µM; in assay [1] it was > 100 µM.

Regarding `CN(C)S(=O)(=O)N1CCN(c2ccccc2Cl)CC1`, the AC50 in assay [2] (setting [3]) and in assay [1] was > 100 µM throughout.

On to `CCC1(CC)NC(=O)N(CC(=O)N2N=C(c3ccc(Cl)cc3)CC2c2ccco2)C1=O` (configuration not stated), for which the AC50 in assay [2] (setting [3]) and in assay [1] was > 100 µM in each case.

With `NS(=O)(=O)c1cccc(NC(=O)CSc2nc3ccccc3n2-c2ccccc2)c1`, the results for the AC50 in assay [2], in assay [2] (setting [3]) and in assay [1] were > 100 µM (inactive), 36 µM and > 100 µM, respectively.

With `COc1ccc2oc(C)c(C(=O)c3ccccc3)c2c1`, the AC50 in assay [2] is > 100 µM (inactive); in assay [2] (setting [3]) it was 48.5 µM; in assay [1], > 100 µM.

With `CS(=O)(=O)c1ccc(Cl)c(NC(=O)CSc2nncn2-c2ccccc2)c1`, the AC50 in assay [2] is > 100 µM (inactive); in assay [1], > 100 µM.

For `CCc1cc2c(nc1CC)CCCN2Cc1ccc(Br)cc1`, the AC50 in assay [2] was > 100 µM (inactive); in assay [1], > 100 µM.

On to `Nc1c(Cl)cc(C2=NCCn3nc4ccccc4c32)cc1Cl`, for which the results for the AC50 in assay [2], in assay [2] (setting [3]) and in assay [1] were > 100 µM (inactive), 41.6 µM and 50.5 µM, respectively.

For `Cc1cc(SCC(=O)c2cccs2)n2nc(C)c(-c3ccc(Cl)cc3)c2n1`, the AC50 in assay [1] is > 100 µM.

As to `COc1ccccc1NC(=O)COC(=O)Cc1c[nH]c2ccccc12`, the AC50 in assay [2] (setting [3]) and in assay [1] was > 100 µM in each case.

Take `CCCc1c(C(=O)Nc2ccc(OC)cc2)cnn1-c1ccccc1`: the AC50 is > 100 µM (inactive) in assay [2] and 9.68 µM in assay [1].

With `O=C(Nc1ccncc1)c1ccc(S(=O)(=O)Nc2ccccc2)cc1`, the AC50 in assay [2] is > 100 µM (inactive); in assay [1], > 100 µM.

For the molecule `Cc1onc(-c2ccccc2Cl)c1C(=O)N1CCN(Cc2ccc3c(c2)OCO3)CC1`, the AC50 in assay [2] (setting [3]) and in assay [1] was > 100 µM each time.

In the case of `N#Cc1cccc(-c2ccc3c(c2)[C@@H]2[C@@H](CCN2S(=O)(=O)c2cccc(F)c2)[C@H](CO)N3)c1`, the AC50 in assay [2] is > 100 µM (inactive); in assay [1], > 100 µM.

In the case of `CN(C)CCCN(C(=O)CCOc1ccccc1)c1nc2c(F)cccc2s1`, the AC50 in assay [1] is > 100 µM.

As to `CCn1cc(Br)c(C(=O)Nc2ccc(C(=O)OC(C)C)cc2)n1`, the AC50 in assay [2] was > 100 µM (inactive); in assay [1], > 100 µM.

Regarding `C=C1c2cc3c(cc2NC(=S)N1Cc1ccccc1)OCO3`, the AC50 in assay [2] (setting [3]) and in assay [1] was > 100 µM each time.

In the case of `CCOc1ccc(C(C)=O)cc1CN1C(=O)NC2(CCCCCCC2)C1=O`, the AC50 in assay [1] was > 100 µM.

Turning to `COc1ccc(NC(=O)Nc2cccc3c2O[C@@H](CN(C)S(=O)(=O)c2ccc(Cl)cc2)[C@H](C)CN([C@H](C)CO)C3=O)cc1`, the AC50 in assay [2] is > 100 µM (inactive); in assay [1], > 100 µM.

For `O=C(Nc1cccc(Cl)c1)N1C[C@@H]2[C@H](c3ccccc31)[C@@H](CO)N2CC1CCCCC1`, the AC50 was > 100 µM (inactive) in assay [2] and 50 µM in assay [2] (setting [3]).

Consider `Cc1cccc(CN2C(=O)c3ccccc3Sc3ccc(C(=O)O)cc32)c1`, for which the AC50 in assay [2] (setting [3]) was > 100 µM.

For `Cc1cc(C(=O)NCCC2=CCCCC2)ccc1[N+](=O)[O-]`, the values for the AC50 in assay [2] and in assay [2] (setting [3]) were > 100 µM (inactive) and > 100 µM, respectively.

With `O=C(NCc1ccccc1)c1ccc(-c2ccccc2F)o1`, the results for the AC50 in assay [2] and in assay [2] (setting [3]) were > 100 µM (inactive) and 28.8 µM, respectively.

For the molecule `COc1cc2nc(Nc3ccc(F)cc3)nc(N)c2cc1OC`, in assay [2], the AC50 is > 100 µM (inactive).

In the case of `Cc1cccc(S(=O)(=O)Nc2ccc(-c3cn4ccccc4n3)cc2)c1`, the AC50 in assay [2] was > 100 µM (inactive); in assay [2] (setting [3]), 26.7 µM.

On to `COc1cccc(NC(=O)N(C)C[C@H]2Oc3ncc(C#Cc4cccnc4)cc3C(=O)N([C@H](C)CO)C[C@H]2C)c1`, for which the AC50 in assay [2] (setting [3]) is > 100 µM.

As to `CCc1cc2cc(OC)ccc2nc1SCC(=O)Nc1cc(OC)c(OC)cc1C(=O)O`, the AC50 in assay [2] was > 100 µM (inactive); in assay [2] (setting [3]) it was 36.3 µM; in assay [1], > 100 µM.

Take `O=C1N[C@@H](Cc2ccccc2)COC(=O)[C@H](Cc2ccc(F)cc2)C/C=C\C[C@H]1CC(=O)N(CCO)Cc1ccccc1`: the AC50 in assay [2] is > 100 µM (inactive).

On to `O=C(NCCc1ccc(Cl)cc1)c1ccc2nc[nH]c2c1`, for which, in assay [2], the AC50 is > 100 µM (inactive).

Regarding `CC[N+](CC)(CC#Cc1ccccc1)CC#Cc1ccccc1`, the AC50 in assay [2] is > 100 µM (inactive); in assay [2] (setting [3]), > 100 µM.

The values above are taken from PubChem BioAssay AID977622 (Broad Institute, 2014).
